# Article PMC6151437, “Antibacterial Synthetic Peptides Derived from Bovine Lactoferricin Exhibit Cytotoxic Effect against MDA-MB-468 and MDA-MB-231 Breast Cancer Cell Lines” (Molecules : A Journal of Synthetic Chemistry and Natural …, 2017)
# Read-outs that look alike come from different tables or passages of the source. Bridge positions count the residues as written; N and C are the ends. Square brackets hold non-standard residues; d marks the D form. Ends that are not written are not given here. Peptide text beside a SMILES is read from it. I, II: the chains in the order shown. Ahx = NCCCCCC(=O)O
# Columns and labels:
# E. coli ATCC 11775 = format: cell-based
# Method: (§1) The minimal inhibitory concentration (MIC) was determined using a microdilution assay. In brief, bacterial strains were incubated for 18 to 24 h at 37 °C in an Muller Hinton broth (MHB) until an optical density of 0.15 to 0.30 (620 nm) was obtained. 90 µL of MHB was mixed with 90 µL of peptide (440 µg/mL), and using a 96-well microtiter plate peptide, serial dilution (200, 100, 50, 25, 12.5, and 6.2 µg/mL) was performed. 10 µL of inoculum (2 × 10^6 CFU/mL) was added to each well. Final volume in each well was 100 µL. Then they were incubated for 24 h at 37 °C, and the absorbance at 620 nm was measured using an Asys Expert Plus ELISA reader. For determining the minimum bactericidal concentration (MBC), a small sample was taken from each well using an inoculation loop, which was then spread on MHA plates and incubated overnight at 37 °C. […] Each of these tests was performed twice (n = 2).
# E. coli ATCC 25922 = format: cell-based
# Method: as §1
# [1] = format: cell-based, human; conditions: human
# Method: (§2) Cytotoxicity assays were performed as previously described. Briefly, breast cancer cell lines (100 µL; 2.5 × 10^3 cells/well) were seeded in 96-well flat bottom tissue culture treated plates and were incubated at 37 °C in a 10% CO2 humidified atmosphere for 24 h, allowing for cell adhesion. Then the media was removed, then 100 µL of FBS (5%) and 100 µL of peptide were added. The peptide final concentration was ranging from 200 to 6.25 µg/mL and the final FBS concentration was 2.5%. Plates were incubated 2 h at 37 °C in a 10% CO2 humidified atmosphere (physiologic pH). Negative controls included medium and water. All controls were prepared in triplicate. Cell viability was determined using the MTT assay after 2 h. For this, 10 µL of MTT solution (5 mg/mL) was added to each well, and the plates were incubated for 2 h at 37 °C. Formazan crystals were clarified by centrifugation, the supernatant was discarded, and the crystals were dissolved in DMSO (100 µL). Absorbance (570 nm) was registered on a Bio-Rad 680 microplate reader. (n = 3).
# [2] = format: cell-based, human; conditions: human; remark: listed apart in the source
# Method: as §2
# [3] = test system: human gastric cancer cell line AGS; conditions: cited from earlier work
# [4] = E. coli ATCC 11775, microdilution in MHB, 24 h at 37 °C, absorbance 620 nm, n = 2
# [5] = E. coli ATCC 11775, plated on MHA overnight at 37 °C, no bacterial growth, n = 2
# [6] = E. coli ATCC 25922, microdilution in MHB, 24 h at 37 °C, absorbance 620 nm, n = 2
# [7] = E. coli ATCC 25922, plated on MHA overnight at 37 °C, no bacterial growth, n = 2
Compound,Antibacterial Effect MBC (E. coli ATCC 11775; ATCC 11775),"Antibacterial Effect MIC (E. coli ATCC 11775; ATCC 11775, 24 h)",Antibacterial Effect MBC (E. coli ATCC 25922; ATCC 25922),"Antibacterial Effect MIC (E. coli ATCC 25922; ATCC 25922, 24 h)",IC50 at 2 h [1],IC50 at 2 h [2],IC50 [3],Antibacterial Effect MIC (E. coli ATCC 11775; [4]),Antibacterial Effect MBC (E. coli ATCC 11775; [5]),Antibacterial Effect MIC (E. coli ATCC 25922; [6]),Antibacterial Effect MBC (E. coli ATCC 25922; [7]),"Antibacterial Effect MIC (E. coli ATCC 11775; E. coli ATCC 11775, value in parentheses, microdilution in MHB, 24 h at 37 °C, n = 2)","Antibacterial Effect MBC (E. coli ATCC 11775; E. coli ATCC 11775, value in parentheses, plated on MHA overnight at 37 °C, n = 2)","Antibacterial Effect MBC (E. coli ATCC 25922; E. coli ATCC 25922, value in parentheses, plated on MHA overnight at 37 °C, n = 2)"
CSCC[C@@H]1NC(=O)[C@H](CCCNC(=N)N)NC(=O)[C@H](Cc2c[nH]c3ccccc23)NC(=O)[C@H](CCC(N)=O)NC(=O)[C@H](Cc2c[nH]c3ccccc23)NC(=O)[C@H](CCCNC(=N)N)NC(=O)[C@H](CCCNC(=N)N)NC(=O)[C@@H](N)CSSC[C@@H](C(N)=O)NC(=O)CCCCCNC(=O)CNC(=O)[C@H](CC(C)C)NC(=O)[C@H](CCCCN)NC(=O)[C@H](CCCCN)NC1=O [LfcinB (20–30)cyc] (H-CRRWQWRMKKLG[Ahx]C-NH2; disulfide 1-14),200 µg/mL,200 µg/mL,200 µg/mL,200 µg/mL,,,,,,,,,,
RRWQWRMKKLG-NH2 [LfcinB (20–30)],130 µM,130 µM,130 µM,130 µM,> 130 µM,> 130 µM,> 500 µM,,,,,,,
CSCC[C@@H]1NC(=O)[C@H](CCCNC(=N)N)NC(=O)[C@H](Cc2c[nH]c3ccccc23)NC(=O)[C@H](CCC(N)=O)NC(=O)[C@H](Cc2c[nH]c3ccccc23)NC(=O)[C@H](CCCNC(=N)N)NC(=O)[C@H](CCCNC(=N)N)NC(=O)[C@H](C)NC(=O)[C@H](CCCCN)NC(=O)[C@H](Cc2ccccc2)NC(=O)[C@@H](N)CSSC[C@@H](C(N)=O)NC(=O)CCCCCNC(=O)[C@H](C)NC(=O)CNC(=O)[C@H](CC(C)C)NC(=O)[C@H](CCCCN)NC(=O)[C@H](CCCCN)NC1=O [[Ala^19]-LfcinB (17–31)cyc] (H-CFKARRWQWRMKKLGA[Ahx]C-NH2; disulfide 1-18),> 88 µM,> 88 µM,88 µM,88 µM,> 88 µM,> 88 µM,,> 200 µg/mL,> 200 µg/mL,200 µg/mL,200 µg/mL,,,
CSCC[C@H](NC(=O)[C@H](CCCNC(=N)N)NC(=O)[C@H](Cc1c[nH]c2ccccc12)NC(=O)[C@H](CCC(N)=O)NC(=O)[C@H](Cc1c[nH]c2ccccc12)NC(=O)[C@H](CCCNC(=N)N)NC(=O)[C@H](CCCNC(=N)N)NC(=O)[C@H](C)NC(=O)[C@H](CCCCN)NC(=O)[C@@H](N)Cc1ccccc1)C(=O)N[C@@H](CCCCN)C(=O)N[C@@H](CCCCN)C(=O)N[C@@H](CC(C)C)C(=O)NCC(=O)N[C@@H](C)C(=O)O [[Ala^19]-LfcinB (17–31)],102 µM,> 102 µM,102 µM,102 µM,> 102 µM,> 102 µM,,,,,,,,
N=C(N)NCCC[C@@H]1NC(=O)[C@H](Cc2c[nH]c3ccccc23)NC(=O)[C@H](CCC(N)=O)NC(=O)[C@H](Cc2c[nH]c3ccccc23)NC(=O)[C@H](CCCNC(=N)N)NC(=O)[C@H](CCCNC(=N)N)NC(=O)[C@@H](N)CSSC[C@@H](C(N)=O)NC(=O)CCCCCNC1=O [LfcinB (20–25)cyc] (H-CRRWQWR[Ahx]C-NH2; disulfide 1-9),,,,77 µM,,,,,,100 µg/mL,,153 µM,153 µM,> 153 µM
"I: H-RRWQWRMKKLGK[Ahx]C-NH2 / II: H-RRWQWRMKKLGK[Ahx]C-NH2 / III: H-RRWQWRMKKLG / IV: H-RRWQWRMKKLG (amide I:12-III:C, II:12-IV:C; disulfide I:14-II:14) [LfcinB (20–30)4]",15 µM,15 µM,15 µM,15 µM,,,,200 µg/mL,200 µg/mL,200 µg/mL,200 µg/mL,,,
CSCC[C@H](NC(=O)[C@H](CCCNC(=N)N)NC(=O)[C@H](Cc1c[nH]c2ccccc12)NC(=O)[C@H](CCC(N)=O)NC(=O)[C@H](Cc1c[nH]c2ccccc12)NC(=O)[C@H](CCCNC(=N)N)NC(=O)[C@@H](N)CCCNC(=N)N)C(=O)N[C@@H](CCCCN)C(=O)N[C@@H](CCCCN)C(=O)N[C@@H](CC(C)C)C(=O)NCC(=O)NCCCC[C@H](NC(=O)CNC(=O)[C@H](CC(C)C)NC(=O)[C@H](CCCCN)NC(=O)[C@H](CCCCN)NC(=O)[C@H](CCSC)NC(=O)[C@H](CCCNC(=N)N)NC(=O)[C@H](Cc1c[nH]c2ccccc12)NC(=O)[C@H](CCC(N)=O)NC(=O)[C@H](Cc1c[nH]c2ccccc12)NC(=O)[C@H](CCCNC(=N)N)NC(=O)[C@@H](N)CCCNC(=N)N)C(=O)NCCCCCC(N)=O [LfcinB (20–30)2] (I: H-RRWQWRMKKLGK[Ahx]-NH2 / II: H-RRWQWRMKKLG; amide I:12-II:C),60 µM,60 µM,60 µM,30 µM,,,,200 µg/mL,200 µg/mL,100 µg/mL,200 µg/mL,,,
CSCC[C@H](NC(=O)[C@H](CCCNC(=N)N)NC(=O)[C@H](Cc1c[nH]c2ccccc12)NC(=O)[C@H](CCC(N)=O)NC(=O)[C@H](Cc1c[nH]c2ccccc12)NC(=O)[C@H](CCCNC(=N)N)NC(=O)[C@H](CCCNC(=N)N)NC(=O)[C@H](C)NC(=O)[C@H](CCCCN)NC(=O)[C@@H](N)Cc1ccccc1)C(=O)N[C@@H](CCCCN)C(=O)N[C@@H](CCCCN)C(=O)N[C@@H](CC(C)C)C(=O)NCC(=O)N[C@@H](C)C(=O)NCCCC[C@H](NC(=O)[C@H](C)NC(=O)CNC(=O)[C@H](CC(C)C)NC(=O)[C@H](CCCCN)NC(=O)[C@H](CCCCN)NC(=O)[C@H](CCSC)NC(=O)[C@H](CCCNC(=N)N)NC(=O)[C@H](Cc1c[nH]c2ccccc12)NC(=O)[C@H](CCC(N)=O)NC(=O)[C@H](Cc1c[nH]c2ccccc12)NC(=O)[C@H](CCCNC(=N)N)NC(=O)[C@H](CCCNC(=N)N)NC(=O)[C@H](C)NC(=O)[C@H](CCCCN)NC(=O)[C@@H](N)Cc1ccccc1)C(=O)NCCCCCC(N)=O [[Ala^19]-LfcinB (17–31)2] (I: H-FKARRWQWRMKKLGAK[Ahx]-NH2 / II: H-FKARRWQWRMKKLGA; amide I:16-II:C),> 48 µM,> 48 µM,24 µM,24 µM,,,,> 200 µg/mL,> 200 µg/mL,100 µg/mL,100 µg/mL,,,
